Measurements published in patent US20230203060A1 (GENFLEET THERAPEUTICS (SHANGHAI) INC., priority 2020, published 2023).
Where a name gives a salt, the structure may show the parent alone.

system: A549 cells (KRAS G12S mutant); experiment: Cell proliferation inhibition experiment, 3D spheroid, CellTiter-Glo, A549; assay type: cell-based, human; details: Homo sapiens, A549, 120 h, A549 (KRAS G12S mutant) 3D spheroid, 5 days with compound, CellTiter-Glo; read-out: A549 IC50
Method in brief: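 NCI-H358 (800 cells/well, RPMI-1640) and A549 (400 cells/well, F-12K) grown overnight as 3D spheroids in 2% FBS medium, then exposed 5 days to 3.16-fold compound dilutions at 0.1% DMSO. Viability measured by CellTiter-Glo luminescence; inhibition relative to DMSO and medium blank, IC50 from four-parameter fit.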

SMILES | IC50
C=CC(=O)N1CCN2C(=O)c3c(N4C[C@@H](OC)C[C@@H]4C)nc(-c4c(O)cccc4F)c(F)c3OC[C@H]2C1 [Z359-1, (6aR)-8-actyloyl-4-fluoro-3-(2-fluoro-6-hydroxyphenyl)-1-((2S,4S)-4-methoxy-2-methylpyrrolidin-1-yl)-6,6a,7,8,9,10-hexahydro-12H-pyrazino[2,1-c]pyrido[3,4-f][1,4]oxazepin-12-one] | 12.2 µM
C=CC(=O)N1CCN2C(=O)c3c(N4CC[C@@H](OC)C4(C)C)nc(-c4c(O)cccc4F)c(Cl)c3OC[C@H]2C1 (single isomer, unassigned) [Z241a-2] | 3.04 µM
C=CC(=O)N1CCN2C(=O)c3c(N4CCO[C@](C)(CO)C4)nc(-c4c(O)cccc4F)c(Cl)c3OC[C@H]2C1 (single isomer, unassigned) [Z333-1] | > 30 µM
C=CC(=O)N1CCN2C(=O)c3c(N4CCN(C(=O)C5CC5)C[C@@H]4C)nc(-c4c(O)cccc4F)c(Cl)c3OC[C@H]2C1 [Z320-1, (6aR)-8-acryloyl-4-chloro-1-((S)-4-(cyclopropanecarbonyl)-2-methylpiperazin-1-yl)-3-(2-fluoro-6-hydroxyphenyl)-6,6a,7,8,9,10-hexahydro-12H-pyrazino[2,1-c]pyrido[3,4-f][1,4]oxazepin-12-one] | 8.92 µM
C=CC(=O)N1CCN2C(=O)c3c(N4C[C@@](C)(O)CC4(C)C)nc(-c4c(O)cccc4F)c(Cl)c3OC[C@H]2C1 (single isomer, unassigned) [Z243-1] | 3.1 µM
C=CC(=O)N1CCN2C(=O)c3c(N4Cc5cn(C)nc5[C@H]4C)nc(-c4c(O)cccc4F)c(Cl)c3OC[C@H]2C1 (single isomer, unassigned) [Z291-1S, trifluoroacetate] | 9.22 µM
C=CC(=O)N1CCN2C(=O)c3c(N4C[C@@H](OC)CC4(C)C)nc(-c4c(O)cccc4F)c(Cl)c3OC[C@H]2C1 (single isomer, unassigned) [Z244-1] | 2.9 µM
C=CC(=O)N1CCN2C(=O)c3c(N4C[C@H](N(C)C)CC4(C)C)nc(-c4c(O)cccc4F)c(Cl)c3OC[C@H]2C1 (single isomer, unassigned) [Z324-2] | 4.65 µM
C=CC(=O)N1CCN2C(=O)c3c(N4C[C@H](CO)CC4(C)C)nc(-c4c(O)cccc4F)c(Cl)c3OC[C@H]2C1 (single isomer, unassigned) [Z240-2] | > 10 µM
C=CC(=O)N1CCN2C(=O)c3c(N4C[C@H](O)CC4(C)C)nc(-c4ccccc4F)c(Cl)c3OC[C@H]2C1 (single isomer, unassigned) [Z325-2] | > 30 µM
C=CC(=O)N1CCN2C(=O)c3c(N4CC(N(C)CCOC)CC4(C)C)nc(-c4c(O)cccc4F)c(Cl)c3OCC2C1 (single isomer, unassigned) [Z296-1] | 3.34 µM
C=CC(=O)N1CCN2C(=O)c3c(N4CCN(C(=O)CC)C[C@@H]4C)nc(-c4c(O)cccc4F)c(Cl)c3OC[C@H]2C1 [Z316-1, (6aR)-8-acryloyl-4-chloro-3-(2-fluoro-6-hydroxyphenyl)-1-((S)-2-methyl-4-propionylpiperazin-1-yl)-6,6a,7,8,9,10-hexahydro-12H-pyrazino[2,1-c]pyrido[3,4-f][1,4]oxazepin-12-one] | > 30 µM
C=CC(=O)N1CCN2C(=O)c3c(N4C[C@@H](O)CC4(C)C)nc(-c4c(F)ccc(Cl)c4O)c(F)c3OC[C@H]2C1 (single isomer, unassigned) [Z341-1] | 11.1 µM
C=CC(=O)N1CCN2C(=O)c3c(N4C[C@@H](N5CCOCC5)CC4(C)C)nc(-c4c(O)cccc4F)c(Cl)c3OC[C@H]2C1 (single isomer, unassigned) [Z297-2] | 8.7 µM
C=CC(=O)N1CCN2C(=O)c3c(N4C[C@H](OC)CC4(C)C)nc(-c4c(O)cccc4F)c(Cl)c3OC[C@H]2C1 (single isomer, unassigned) [Z244-2] | 2.08 µM
C=CC(=O)N1CCN2C(=O)c3c(N4CC(C)(C)OC[C@@H]4C)nc(-c4c(O)cccc4F)c(Cl)c3OC[C@H]2C1 [Z276-1, (6aR)-8-acryloyl-4-chloro-3-(2-fluoro-6-hydroxyphenyl)-1-((S)-2,2,5-trimethylmorpholino)-6,6a,7,8,9,10-hexahydro-12H-pyrazino[2,1-c]pyrido[3,4-f][1,4]oxazepin-12-one] | > 30 µM
C=CC(=O)N1CCN2C(=O)c3c(N4CC[C@@H](OC)[C@@H]4C)nc(-c4c(O)cccc4F)c(Cl)c3OC[C@H]2C1 [Z338-1, (6aR)-8-acryloyl-4-chloro-3-(2-fluoro-6-hydroxyphenyl)-1-((2S,3R)-3-methoxy-2-methylpyrrolidin-1-yl)-6,6a,7,8,9,10-hexahydro-12H-pyrazino[2,1-c]pyrido[3,4-f][1,4]oxazepin-12-one] | 12.3 µM
C=CC(=O)N1CCN2C(=O)c3c(N4C[C@@H](N(C)C)CC4(C)C)nc(-c4c(O)cccc4F)c(Cl)c3OC[C@H]2C1 (single isomer, unassigned) [Z324-1] | 2.85 µM
C=CC(=O)N1CCN2C(=O)c3c(N4Cc5nn(C)cc5[C@@H]4C)nc(-c4c(O)cccc4F)c(Cl)c3OC[C@H]2C1 (single isomer, unassigned) [Z345-2] | 9.4 µM
C=CC(=O)N1CCN2C(=O)c3c(N4C[C@@H](N(C)CCOC)C[C@@H]4C)nc(-c4c(O)cccc4F)c(Cl)c3OC[C@H]2C1 [Z358-1] | > 10 µM

Further lines, results first:

IC50 | SMILES
> 30 µM | C=CC(=O)N1CCN2C(=O)c3c(N4CCCC4(C)C)nc(-c4c(O)cccc4F)c(Cl)c3OC[C@H]2C1 [Z22, (6aR)-8-acryloyl-4-chloro-1-(2,2-dimethylpyrrolidin-1-yl)-3-(2-fluoro-6-hydroxyphenyl)-6,6a,7,8,9,10-hexahydro-12H-pyrazino[2,1-c]pyrido[3,4-f][1,4]oxazepin-12-one]
8.55 µM | C=CC(=O)N1CCN2C(=O)c3c(N4CCC(N(C)C)C4(C)C)nc(-c4c(O)cccc4F)c(Cl)c3OC[C@H]2C1 (stereo partly drawn) [Z334, (6aR)-8-acryloyl-4-chloro-1-(3-(dimethylamino)-2,2-dimethylpyrrolidin-1-yl)-3-(2-fluoro-6-hydroxyphenyl)-6,6a,7,8,9,10-hexahydro-12H-pyrazino[2,1-c]pyrido[3,4-f][1,4]oxazepin-12-one]
9.02 µM | C=CC(=O)N1CCN2C(=O)c3c(N(C)c4c(C(C)C)ncnc4C(C)C)nc(-c4c(O)cccc4F)c(Cl)c3OC[C@H]2C1 [Z20, (6aR)-8-acryloyl-4-chloro-1-((4,6-diisopropylpyrimidin-5-yl)(methyl)amino)-3-(2-fluoro-6-hydroxyphenyl)-6,6a,7,8,9,10-hexahydro-12H-pyrazino[2,1-c]pyrido[3,4-f][1,4]oxazepin-12-one]
> 10 µM | C=CC(=O)N1CCN2C(=O)c3c(N4CCN(C)C5(CC5)C4)nc(-c4c(O)cccc4F)c(Cl)c3OC[C@H]2C1 [Z83, (6aR)-8-acryloyl-4-chloro-3-(2-fluoro-6-hydroxyphenyl)-1-(4-methyl-4,7-diazaspiro[2 .5]octan-7-yl)-6,6a,7,8,9,10-hexahydro-12H-pyrazino[2,1-c]pyrido[3,4-f][1,4]oxazepin-12 (6aH)-one]
19 µM | C=CC(=O)N1CCN2C(=O)c3c(Nc4c(C(C)C)ncnc4C(C)C)nc(-c4c(O)cccc4F)c(Cl)c3OC[C@H]2C1 [Z15, (6aR)-8-acryloyl-4-chloro-1-((4,6-diisopropylpyrimidin-5-yl)amino)-3-(2-fluoro-6-hydroxyphenyl)-6,6a,7,8,9,10-hexahydro-12H-pyrazino[2,1-c]pyrido[3,4-f][1,4]oxazepin-12-one]
> 30 µM | C=CC(=O)N1CCN2C(=O)c3c(N4CCN(C(C)=O)C(C)(C)C4)nc(-c4c(O)cccc4F)c(Cl)c3OC[C@H]2C1 [Z315, (6aR)-1-(4-acetyl-3,3-dimethylpiperazin-1-yl)-8-acryloyl-4-chloro-3-(2-fluoro-6-hydroxyphenyl)-6,6a,7,8,9,10-hexahydro-12H-pyrazino[2,1-c]pyrido[3,4-f][1,4]oxazepin-12-one]
> 30 µM | C=CC(=O)N1CCN2C(=O)c3c(N4CCOCC4)nc(-c4nc(N)cc(C)c4C(F)(F)F)c(Cl)c3OC[C@H]2C1 [Z314]
> 20 µM | C=CC(=O)N1CCN2C(=O)c3c(N4CCC(C)(C)C4)nc(-c4c(O)cccc4F)c(Cl)c3OC[C@H]2C1 [Z21, (6aR)-8-acryloyl-4-chloro-1-(3,3-dimethylpyrrolidin-1-yl)-3-(2-fluoro-6-hydroxyphenyl)-6,6a,7,8,9,10-hexahydro-12H-pyrazino[2,1-c]pyrido[3,4-f][1,4]oxazepin-12-one]
8.84 µM | C=CC(=O)N1CCN2C(=O)c3c(N4CC(N(C)C5COC5)CC4(C)C)nc(-c4c(O)cccc4F)c(Cl)c3OC[C@H]2C1 (stereo partly drawn) [Z326, (6aR)-8-acryloyl-4-chloro-1-(2,2-dimethyl-4-(methyl(oxetan-3-yl)amino)pyrrolidin-1-yl)-3-(2-fluoro-6-hydroxyphenyl)-6,6a,7,8,9,10-hexahydro-12H-pyrazino[2,1-c]pyrido[3,4-f][1,4]oxazepin-12-one]
3.72 µM | C=CC(=O)N1CCN2C(=O)c3c(N4CC(N5CCOCC5)CC4(C)C)nc(-c4c(O)cccc4F)c(Cl)c3OC[C@H]2C1 (stereo partly drawn) [Z344, (6aR)-8-acryloyl-4-chloro-1-((2,2-dimethyl-4-morpholinopyrrolidin-1-yl))-3-(2-fluoro-6-hydroxyphenyl)-6,6a,7,8,9,10-hexahydro-12H-pyrazino[2,1-c]pyrido[3,4-f][1,4]oxazepin-12-one]
4.94 µM | C=CC(=O)N1CCN2C(=O)c3c(N4CCC(OC)C4(C)C)nc(-c4c(O)cccc4F)c(Cl)c3OC[C@H]2C1 (stereo partly drawn) [Z241a, (6aR)-8-acryloyl-4-chloro-3-(2-fluoro-6-hydroxyphenyl)-1-(3-methoxy-2,2-dimethylpyrrolidin-1-yl)-6,6a,7,8,9,10-hexahydro-12H-pyrazino[2,1-c]pyrido[3,4-f][1,4]oxazepin-12-one]
28.2 µM | C=CC(=O)N1CCN2C(=O)c3c(N4CCN(CCOC)C[C@@H]4C)nc(-c4c(O)cccc4F)c(Cl)c3OC[C@H]2C1 [Z257a, (6aR)-8-acryloyl-4-chloro-3-(2-fluoro-6-hydroxyphenyl)-1-((S)-4-(2-methoxyethyl)-2-methylpiperazin-1-yl)-6,6a,7,8,9,10-hexahydro-12H-pyrazino[2,1-c]pyrido[3,4-f][1,4]oxazepin-12-one]
